Reference: patent US20160025704A1, “METHODS FOR IDENTIFYING NEUROPROTECTIVE PKC ACTIVATORS” (priority 2013, published 2016)

What was measured:
ECE = ECE activity in SH-SY5Y cells (fluorometric); assay type: cell-based; conditions: compared to ethanol alone
Procedure: Aβ can be degraded in vivo by a number of enzymes, including insulin degrading enzyme (insulysin), neprilysin, and ECE (FIG. 12). Because PKC-ε overexpression has been reported to activate ECE (Choi et al., Proc. Natl. Acad. Sci. USA. 2006; 103: 8215-20), the effect of PKC activators on ECE was analyzed. Candidate PKC activators were added to either SH-SY5Y cells (Bryo—0.27 nM, DCP-LA—1 μM, and DHA-CP6 1 μM) or cultured neurons (DHA-CP6—1 μM, EPA-CP5— 1 μM, and AA-CP4— 1 μM), and grown on either 12- or 24-well plates. After various time periods, the cells were collected and ECE activity was measured fluorometrically. Results are shown below in FIG. 13. *, p<0.05; **, p<0.001.
PKCε overexpression has been reported to activate endothelin converting enzyme (ECE). The effect of PKC activators on ECE was measured here with Bryostatin, DCP-LA, and DHA-CP6. […] Protocol: Bryostatin (0.27 nM), DCP-LA (1 μM), DHACP6 (1 μM), EPA-CP5 (1 μM), AA-CP4 (1 μM), or ethanol alone were added to SH-SYSY cells growing on 12- or 24-well plates. After various periods of time, the cells were collected and ECE activity was measured fluorometrically as showing in FIG. 34 below (* p<0.05, ** p<0.001).

5XFAD mice = experiment: Synaptic loss in hippocampal CA1 area of 5XFAD mice; assay type: in vivo
Procedure: Protocol: DCPLA (20 mg/m^2, tail vein injection) was administered to 2-month old 5XFAD mice twice a week. At five months old, hippocampal slices from the brains of the mice were processed for immunohistochemistry and confocal microscopy analysis. Results are shown for analysis of spinophilin density (A, B), synaptophysin density (A, D) not caused by axonal bouton (synaptophysin granules) (C) and neuronal loss (E, F). […] Non-treated groups (wild-type and transgenic (Tg) mice) received the same vehicle volumes, mechanism of delivery, and frequency of administration as the treated groups.

TA 1535 Cells = experiment: AMES test, TA1535 cells; assay type: cell-based; conditions: TA1535 Cells, plate count
Description: The AMES test is a rapid screening of the mutagenic potential of chemical compounds. […] Between 50% and 70% of all known carcinogens test positive in the AMES test.

Human primary neurons = experiment: ASPD-induced apoptosis in human primary neurons (Annexin-V Fluorescein); assay type: cell-based; conditions: 0.27 nM with 100 nM ASPD, 24 hours
Procedure: Protocol: Human primary neurons were grown on chambered slides and treated with vehicle (Control), 100 nM ASPD, ASPD+DCPLA-ME (100 nM), ASPD+bryostatin 1 (0.27 nM) and ASPD+DCPLA-ME (100 nM) or ASPD+bryostatin 1 (0.27 nM) in presence of PKC-ε inhibitor. Following 24 hours of incubation, cells were stained using Annexin-V Fluorescein to detect apoptotic cells and results are shown in FIG. 10 below. […] Data are mean±SEM of three independent experiments. (*p<0.05;** p<0.005 and *** p<0.0005).

GSK-3β = experiment: Phosphorylation of GSK-3β (Ser9) in hippocampus (Western Blot); assay type: in vivo, mice; conditions: 20 μg/m2 i.v., 2 doses/wk for 13 wk
Tg2576 mice = experiment: Dendritic spines and synapses in hippocampal CA1 area of Tg2576 mice; assay type: in vivo
[1] = tested on: neurons in the CA1 hippocampal area; experiment: Apoptotic cell death (TUNEL) in hippocampal CA1 area after ischemic (2-VO)/hypoxic event; assay type: in vivo; conditions: 15 μg/m^2 tail vein, 2 doses/week for 10 doses, starting 24 hours after ischemic/hypoxic event; staining 9 day after last dose
Procedure: Protocol: Bryostatin-1 (15 μg/m^2) was administered through a tail vein (2 doses/week, for 10 doses), starting 24 hours after the end of the ischemic (2-VO)/hypoxic event. Staining for apoptotic cell death in the hippocampal CA1 area was performed 9 day after the last bryostatin-1 dose. […] (C) Quantification of TUNEL staining in stratum radiatum (n=3 animals; n=30 confocal images). Con=control; Bry=bryostatin-1; Isch=cerebral ischemia; ***, P<0.001.

PKC-α = target: T1, PKC-α (Mus musculus, UniProt P20444); experiment: PKC-α translocation by bryostatin in mouse brain (Western blot); assay type: in vivo; conditions: 30 and 120 minutes after administration
T1 construct: The effect of bryostatin on brain PKC translocation; from tissue; host or cells: brain of C57BL/6 mice
Procedure: Protocol: Male C57BL/6M mice (15-20 g, Charles River) were acclimatized for 7-8 days in a non-enriched environment, three mice per cage. Bryostatin (Tocris) was dissolved in DMSO, diluted into 0.9% saline, and injected into the tail vein at doses of 10 and 15 μg/m2. After a fixed period, the mice were anesthetized with CO2 and the brain was frozen on dry ice. Blood was mixed with 0.2 ml 1 mM EDTA in PBS, centrifuged at 100 g for 30 min, and plasma was frozen on dry ice.
Activation and translocation of PKC-ε were measured by Western blotting after subcellular fractionation into cytosol and particulate fractions. Homogenates were centrifuged at 100,000×g for 20 min and cytosolic and particulate fractions were separated on 4-20% Tris-glycine SDS polyacrylamide gels, blotted onto nitrocellulose, and probed with isozyme specific antibodies. The blots were photographed in a GE ImageQuant at 16 bits/pixel and analyzed by vertical strip densitometry using Imal Unix software.

mTBI mice = experiment: Minimal traumatic brain injury, MWM cognitive test; assay type: in vivo; conditions: 5× i.p. over 14 days; for mTBI induced learning deficits (MWM): injured mice
Procedure: Protocol: One hour after the minimal traumatic brain injury was induced, the mice received a 5×i.p. bryostatin-1 injection treatment over a period of 14 days, in two injection doses 20 and 30 μg/kg (N=9 in each group). One hour after the last injection of the series, the cognitive ability of the mice was tested in the MWM. Mice were tested for 4 days 6 times a day. On day 5 the platform was removed and the mice memory retention was tested. […] Data was analyzed using repeated measure one way ANOVA and presented as mean±S.E.M. Both doses protected the learning abilities of the injured mice (pb0.01).

HL-60 cells = conditions: Kraft et al. 1986; cited from earlier work
Primary human neurons = experiment: Synaptogenicity in primary human neurons; assay type: cell-based; conditions: 0.27 nM
Procedure: Protocol: Primary human neurons were treated with either DCPLA-methyl ester (100 nM) or bryostatin-1 (0.27 nM).

sAPP-α = sAPP-α secretion in control cell lines; assay type: cell-based, human; conditions: 0.1 nM
[2] = 30 μg/kg intraperitoneal twice a week from 2 months old, analysis at five months

CCCCCC1CC1CC1CC1CCCCCCCC(=O)O (centres unmarked) [DCPLA, 8-[2-(2-pentylcyclopropyl)methyl]-cyclopropaneoctanoic acid]
ECE activity (ECE; 1 μM): sustained increase in ECE activity | mushroom spine shape dendritic spines and synapses (5XFAD mice; 20 mg/m^2 tail vein twice a week from 2 months old, analysis at five months): protected the decrease in mushroom spine shape dendritic spines and synapses | synaptic loss in hippocampal CA1 area (5XFAD mice; 5XFAD mice at 5 months old (FIG. 20)): prevents synaptic loss | Negative (TA 1535 Cells; 0.125 mM): 95 | Positive (TA 1535 Cells; 0.125 mM): 1 | Negative (TA 1535 Cells; 0.25 mM): 93 | Positive (TA 1535 Cells; 0.25 mM): 3 | Negative (TA 1535 Cells; 0.5 mM): 94 | Positive (TA 1535 Cells; 0.5 mM): 2 | Negative (TA 1535 Cells; 1 mM): 93 | Positive (TA 1535 Cells; 1 mM): 3

CCC/C=C/C=C/C(=O)O[C@H]1/C(=C/C(=O)OC)C[C@H]2C[C@H]([C@@H](C)O)OC(=O)C[C@H](O)C[C@@H]3C[C@H](OC(C)=O)C(C)(C)[C@](O)(C[C@@H]4C/C(=C/C(=O)OC)C[C@H](/C=C/C(C)(C)[C@]1(O)O2)O4)O3 [Bryostatin, bryostatin-1]
protection against ASPD-induced apoptosis (Human primary neurons): protected against ASPD-induced apoptosis | ECE activity (ECE; 0.27 nM): sustained increase in ECE activity | ECE activity (ECE; 0.27 nM, listed as Bryo): increase in ECE activity | phosphorylation of GSK-3β (Ser9) in the hippocampus of fragile X mice (GSK-3β): increases phosphorylation of GSK-3β | mushroom spine-shape dendritic spines (Tg2576 mice; [2]): prevented decreases in mushroom spine-shape dendritic spines | synapses (electron microscopy) (Tg2576 mice; [2]): prevented decreases | loss of postsynaptic dendritic spines and synapses in the hippocampal CA1 area (Tg2576 mice; Tg2576 mice at 5 months old (FIG. 19)): protects against the loss of postsynaptic dendritic spines and synapses | apoptotic cell death in neurons in the CA1 hippocampal area [1]: prevents apoptotic cell death | PKC-α translocation in mouse brain (PKC-α): translocation was only observed by PKC-ε | acquisition of the learning task, mTBI group versus control mice (mTBI mice; 20 μg/kg): improved their acquisition of the learning task even beyond that of control mice | learning of control uninjured mice (mTBI mice; 20 μg/kg): no effect on uninjured mice | mTBI induced learning deficits (MWM) (mTBI mice; 20 μg/kg): protected against the mTBI induced learning deficits | learning of control uninjured mice (mTBI mice; 30 μg/kg): improved the learning of control uninjured mice | mTBI induced learning deficits (MWM) (mTBI mice; 30 μg/kg): protected against the mTBI induced learning deficits | phorbol ester-induced differentiation of HL-60 cells (HL-60 cells): block phorbol ester-induced differentiation of HL-60 cells | co-localized staining of PSD-95 and synaptophysin in puncta (number of synapses) (Primary human neurons; 30 days): an increase in co-localized staining of PSD-95 and synaptophysin in puncta | survival, neuritic branching and connections (Primary human neurons; 40 days): improved survival with increased neuritic branching and connections | sAPP-α secretion in two control cell lines (sAPP-α): effective in enhancing secretion in two control cell lines, although to a lesser extent than in the AD cell line
